According to ChEMBL document CHEMBL4190187, “Discovery of pyrazolopyrimidine derivatives as novel inhibitors of ataxia telangiectasia and rad3 related protein (ATR)” (Bioorg Med Chem Lett, 2017):

Legend:
[1] = test system: Mus musculus; test: AUC in mouse at 10 mg/kg, po; assay type: ADME, organism-based; conditions: in vivo
[2] = molecular target: Tyrosine-protein kinase Blk (Mus musculus) (UniProt P16277); test: Inhibition of recombinant full-length mouse Blk at 1 uM using poly(Glu,Tyr) 4:1 as substrate after 40 mins in presence of [gamma-33P]ATP by scintillation counting method
[3] = molecular target: Mitogen-activated protein kinase kinase kinase kinase 5 (Homo sapiens) (UniProt Q9Y4K4); test: Inhibition of recombinant full-length human MAP4K5 at 1 uM using myelin basic protein as substrate after 40 mins in presence of [gamma-33P]ATP by scintillation counting method
[4] = molecular target: NUAK family SNF1-like kinase 1 (Homo sapiens) (UniProt O60285); test: Inhibition of recombinant human ARK5 (2 to end residues) at 1 uM using KKKVSRSGLYRSPSMPENLNRPR as substrate after 40 mins in presence of [gamma-33P]ATP by scintillation counting method
[5] = molecular target: Ribosomal protein S6 kinase alpha-2 (Homo sapiens) (UniProt Q15349); test: Inhibition of recombinant full-length human Rsk3 at 1 uM using KKKNRTLSVA as substrate after 40 mins in presence of [gamma-33P]ATP by scintillation counting method
[6] = molecular target: 3-phosphoinositide-dependent protein kinase 1 (Homo sapiens) (UniProt O15530); test: Inhibition of recombinant human PDK1 (52 to end residues) at 1 uM using KTFCGTPEYLAPEVRREPRILSEEEQEMFRDFDYIADWC (PDKtide) as substrate after 40 mins in presence of [gamma-33P]ATP by scintillation counting method
[7] = molecular target: PI3K p110 delta/p85 alpha (Mus musculus) (UniProt P26450+O35904); test: Inhibition of recombinant full-length mouse p110d/p85a at 1 uM using phosphatidylinositol 4,5-bisphosphate as substrate after 40 mins in presence of [gamma-33P]ATP by scintillation counting method; assay type: protein-complex assay
[8] = molecular target: Serine/threonine-protein kinase pim-2 (Homo sapiens) (UniProt Q9P1W9); test: Inhibition of recombinant human PIM2 (2 to end residues) at 1 uM using RSRHSSYPAGT as substrate after 40 mins in presence of [gamma-33P]ATP by scintillation counting method
[9] = molecular target: Serine/threonine-protein kinase MRCK alpha (Homo sapiens) (UniProt Q5VT25); test: Inhibition of recombinant human MRCKalpha (1 to 473 residues) at 1 uM using KKRNRTLTV as substrate after 40 mins in presence of [gamma-33P]ATP by scintillation counting method
[10] = molecular target: Protein kinase C beta type (Homo sapiens) (UniProt P05771); test: Inhibition of recombinant human PKCbeta2 (2 to end residues) at 1 uM using histone H1 as substrate after 40 mins in presence of [gamma-33P]ATP by scintillation counting method
[11] = molecular target: Casein kinase I isoform gamma-2 (Homo sapiens) (UniProt P78368); test: Inhibition of recombinant human CK1gamma2 (18 to end residues) at 1 uM using KRRRALS(p)VASLPGL s substrate after 40 mins in presence of [gamma-33P]ATP by scintillation counting method
[12] = molecular target: Tyrosine-protein kinase Yes (Homo sapiens) (UniProt P07947); test: Inhibition of recombinant full-length human Yes at 1 uM using poly(Glu,Tyr) 4:1 as substrate after 40 mins in presence of [gamma-33P]ATP by scintillation counting method
[13] = molecular target: Vascular endothelial growth factor receptor 1 (Homo sapiens) (UniProt P17948); test: Inhibition of recombinant human Flt1 (783 to end residues) at 1 uM using KKKSPGEYVNIEFG as substrate after 40 mins in presence of [gamma-33P]ATP by scintillation counting method
[14] = molecular target: MAPK/MAK/MRK overlapping kinase (Homo sapiens) (UniProt Q9UQ07); test: Inhibition of recombinant human MOK (1 to 343 residues) at 1 uM using RSRSRSRSRSRSRSR as substrate after 40 mins in presence of [gamma-33P]ATP by scintillation counting method
[15] = molecular target: Death-associated protein kinase 3 (Homo sapiens) (UniProt O43293); test: Inhibition of recombinant human ZIPK (1 to 290 residues) at 1 uM using KKLNRTLSFAEPG as substrate after 40 mins in presence of [gamma-33P]ATP by scintillation counting method
[16] = molecular target: Ephrin type-B receptor 3 (Homo sapiens) (UniProt P54753); test: Inhibition of recombinant human EPHB3 (599 to 920 residues) at 1 uM using poly(Glu,Tyr) 4:1 as substrate after 40 mins in presence of [gamma-33P]ATP by scintillation counting method
[17] = molecular target: Serine/threonine-protein kinase Nek3 (Homo sapiens) (UniProt P51956); test: Inhibition of recombinant full-length human NEK3 at 1 uM using myelin basic protein as substrate after 40 mins in presence of [gamma-33P]ATP by scintillation counting method
[18] = molecular target: Tyrosine-protein kinase Lck (Homo sapiens) (UniProt P06239); test: Inhibition of recombinant full-length human activated Lck at 1 uM using KVEKIGEGTYGVVYK as substrate after 40 mins in presence of [gamma-33P]ATP by scintillation counting method
[19] = molecular target: Serine/threonine-protein kinase Nek2 (Homo sapiens) (UniProt P51955); test: Inhibition of recombinant full-length human NEK2 at 1 uM using myelin basic protein as substrate after 40 mins in presence of [gamma-33P]ATP by scintillation counting method
[20] = molecular target: Eukaryotic translation initiation factor 2-alpha kinase 3 (Homo sapiens) (UniProt Q9NZJ5); test: Inhibition of recombinant human PEK (536 to end residues) at 1 uM using RSRSRSRSRSRSRSR as substrate after 40 mins in presence of [gamma-33P]ATP by scintillation counting method
[21] = molecular target: [Pyruvate dehydrogenase (acetyl-transferring)] kinase isozyme 4, mitochondrial (Homo sapiens) (UniProt Q16654); test: Inhibition of recombinant full-length human PDHK4 at 1 uM using KKKYHGHSMSDPGVSYRT as substrate after 40 mins in presence of [gamma-33P]ATP by scintillation counting method
[22] = test system: Proto-oncogene tyrosine-protein kinase receptor Ret (Homo sapiens), P07949 [V804M]; test: Inhibition of recombinant human RET V804M mutant (658 to end residues) at 1 uM using KKKVSRSGLYRSPSMPENLNRPR as substrate after 40 mins in presence of [gamma-33P]ATP by scintillation counting method
[23] = molecular target: MAP kinase-interacting serine/threonine-protein kinase 2 (Homo sapiens) (UniProt Q9HBH9); test: Inhibition of recombinant full-length human Mnk2 at 1 uM using myelin basic protein as substrate after 40 mins in presence of [gamma-33P]ATP by scintillation counting method
[24] = test system: Mast/stem cell growth factor receptor Kit (Homo sapiens), P10721 [V654A]; test: Inhibition of recombinant human cKit V654A mutant (544 to end residues) at 1 uM using GGMEDIYFEFMGGKKK as substrate after 40 mins in presence of [gamma-33P]ATP by scintillation counting method

Chain of Eukaryotic translation initiation factor 2-alpha kinase 3 (Homo sapiens) (Q9NZJ5 whole entry): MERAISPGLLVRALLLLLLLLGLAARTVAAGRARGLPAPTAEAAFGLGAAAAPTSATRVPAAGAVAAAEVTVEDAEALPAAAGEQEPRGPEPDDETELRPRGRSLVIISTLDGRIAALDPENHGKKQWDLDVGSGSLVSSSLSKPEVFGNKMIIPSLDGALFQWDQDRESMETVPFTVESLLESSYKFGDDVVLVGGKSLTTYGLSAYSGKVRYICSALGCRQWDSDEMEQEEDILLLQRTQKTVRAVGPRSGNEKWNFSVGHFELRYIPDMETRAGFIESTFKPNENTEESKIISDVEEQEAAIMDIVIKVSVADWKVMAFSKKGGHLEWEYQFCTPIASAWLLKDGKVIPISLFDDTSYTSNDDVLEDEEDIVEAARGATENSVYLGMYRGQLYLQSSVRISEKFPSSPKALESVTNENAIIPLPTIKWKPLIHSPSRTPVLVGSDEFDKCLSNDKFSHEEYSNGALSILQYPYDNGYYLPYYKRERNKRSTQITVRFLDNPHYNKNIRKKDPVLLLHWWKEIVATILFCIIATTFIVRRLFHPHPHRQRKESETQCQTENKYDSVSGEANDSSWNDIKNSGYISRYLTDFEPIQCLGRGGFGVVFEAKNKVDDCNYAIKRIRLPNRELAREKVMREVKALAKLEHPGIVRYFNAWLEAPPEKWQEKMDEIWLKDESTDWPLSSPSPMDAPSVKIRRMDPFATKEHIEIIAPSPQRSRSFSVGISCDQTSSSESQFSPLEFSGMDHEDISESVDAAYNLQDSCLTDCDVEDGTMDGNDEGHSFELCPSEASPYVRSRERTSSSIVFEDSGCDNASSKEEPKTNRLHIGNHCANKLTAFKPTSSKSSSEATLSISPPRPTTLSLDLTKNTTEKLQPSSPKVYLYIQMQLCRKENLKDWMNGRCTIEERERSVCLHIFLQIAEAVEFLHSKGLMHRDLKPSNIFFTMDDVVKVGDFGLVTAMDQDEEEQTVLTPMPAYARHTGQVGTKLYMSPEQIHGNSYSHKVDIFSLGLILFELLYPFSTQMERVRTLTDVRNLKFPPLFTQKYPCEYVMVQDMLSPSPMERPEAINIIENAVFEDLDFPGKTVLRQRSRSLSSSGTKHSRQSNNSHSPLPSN
Chain of Vascular endothelial growth factor receptor 1 (Homo sapiens) (P17948 whole entry, the tested form may be a part): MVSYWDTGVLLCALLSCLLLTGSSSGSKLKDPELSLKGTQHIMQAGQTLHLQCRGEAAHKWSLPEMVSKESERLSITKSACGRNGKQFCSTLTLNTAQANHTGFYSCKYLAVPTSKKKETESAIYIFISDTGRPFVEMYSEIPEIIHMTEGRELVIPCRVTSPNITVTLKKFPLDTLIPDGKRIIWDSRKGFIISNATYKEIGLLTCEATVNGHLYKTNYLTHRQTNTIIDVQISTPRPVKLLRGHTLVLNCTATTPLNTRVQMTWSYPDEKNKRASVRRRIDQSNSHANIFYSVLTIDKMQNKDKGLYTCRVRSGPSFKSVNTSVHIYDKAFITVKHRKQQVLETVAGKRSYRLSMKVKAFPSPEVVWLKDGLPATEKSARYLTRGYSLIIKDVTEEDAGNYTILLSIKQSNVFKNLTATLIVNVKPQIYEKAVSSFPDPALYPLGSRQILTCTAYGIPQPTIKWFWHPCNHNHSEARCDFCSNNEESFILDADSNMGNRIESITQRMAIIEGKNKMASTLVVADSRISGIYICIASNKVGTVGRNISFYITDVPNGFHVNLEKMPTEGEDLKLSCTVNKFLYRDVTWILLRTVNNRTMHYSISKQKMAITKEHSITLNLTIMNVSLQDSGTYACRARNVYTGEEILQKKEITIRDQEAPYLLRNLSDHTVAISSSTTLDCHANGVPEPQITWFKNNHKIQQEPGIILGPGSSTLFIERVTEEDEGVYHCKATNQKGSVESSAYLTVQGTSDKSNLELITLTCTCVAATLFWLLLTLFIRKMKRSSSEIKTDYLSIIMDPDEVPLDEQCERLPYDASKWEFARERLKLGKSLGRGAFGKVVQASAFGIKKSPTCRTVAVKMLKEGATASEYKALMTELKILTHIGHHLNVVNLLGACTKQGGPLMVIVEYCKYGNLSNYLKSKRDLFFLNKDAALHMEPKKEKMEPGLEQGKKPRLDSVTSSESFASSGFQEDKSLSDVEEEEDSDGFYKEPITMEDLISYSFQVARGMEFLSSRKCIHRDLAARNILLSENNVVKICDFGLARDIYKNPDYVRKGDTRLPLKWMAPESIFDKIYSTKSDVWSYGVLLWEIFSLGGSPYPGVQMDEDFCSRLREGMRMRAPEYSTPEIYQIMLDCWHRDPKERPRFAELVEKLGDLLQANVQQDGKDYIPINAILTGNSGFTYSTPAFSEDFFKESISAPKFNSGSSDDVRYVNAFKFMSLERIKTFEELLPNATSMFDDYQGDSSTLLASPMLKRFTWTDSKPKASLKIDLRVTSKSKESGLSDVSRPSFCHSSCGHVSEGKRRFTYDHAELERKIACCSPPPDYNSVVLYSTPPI
Chain of 3-phosphoinositide-dependent protein kinase 1 (Homo sapiens) (O15530 whole entry): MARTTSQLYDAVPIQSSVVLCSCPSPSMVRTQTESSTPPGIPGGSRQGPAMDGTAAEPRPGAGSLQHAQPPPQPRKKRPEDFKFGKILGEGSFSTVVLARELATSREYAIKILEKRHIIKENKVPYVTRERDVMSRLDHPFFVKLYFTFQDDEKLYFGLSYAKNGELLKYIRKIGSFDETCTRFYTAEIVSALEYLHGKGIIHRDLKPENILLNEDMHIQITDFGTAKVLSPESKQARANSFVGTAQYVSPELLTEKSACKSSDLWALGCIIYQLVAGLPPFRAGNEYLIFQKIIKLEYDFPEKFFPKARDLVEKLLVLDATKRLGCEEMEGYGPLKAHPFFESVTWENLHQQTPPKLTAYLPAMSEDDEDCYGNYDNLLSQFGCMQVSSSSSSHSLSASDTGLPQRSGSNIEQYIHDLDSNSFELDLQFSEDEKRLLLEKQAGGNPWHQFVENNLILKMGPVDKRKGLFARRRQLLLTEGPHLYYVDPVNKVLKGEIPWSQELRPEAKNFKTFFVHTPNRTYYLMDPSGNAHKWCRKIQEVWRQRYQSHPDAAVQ
Chain of Serine/threonine-protein kinase Nek3 (Homo sapiens) (P51956 whole entry): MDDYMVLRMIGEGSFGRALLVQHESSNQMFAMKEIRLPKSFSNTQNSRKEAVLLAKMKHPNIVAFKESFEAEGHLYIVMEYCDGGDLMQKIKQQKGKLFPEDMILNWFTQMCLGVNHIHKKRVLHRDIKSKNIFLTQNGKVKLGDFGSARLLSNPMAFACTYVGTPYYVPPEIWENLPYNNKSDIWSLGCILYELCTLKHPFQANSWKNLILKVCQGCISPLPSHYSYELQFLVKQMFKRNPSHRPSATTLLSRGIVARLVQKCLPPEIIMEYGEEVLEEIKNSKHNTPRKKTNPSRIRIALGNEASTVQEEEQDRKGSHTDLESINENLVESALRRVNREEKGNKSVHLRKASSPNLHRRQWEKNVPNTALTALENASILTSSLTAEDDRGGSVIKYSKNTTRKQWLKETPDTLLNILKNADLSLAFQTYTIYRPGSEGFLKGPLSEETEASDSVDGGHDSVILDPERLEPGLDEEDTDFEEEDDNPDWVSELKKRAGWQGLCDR
Chain of NUAK family SNF1-like kinase 1 (Homo sapiens) (O60285 whole entry): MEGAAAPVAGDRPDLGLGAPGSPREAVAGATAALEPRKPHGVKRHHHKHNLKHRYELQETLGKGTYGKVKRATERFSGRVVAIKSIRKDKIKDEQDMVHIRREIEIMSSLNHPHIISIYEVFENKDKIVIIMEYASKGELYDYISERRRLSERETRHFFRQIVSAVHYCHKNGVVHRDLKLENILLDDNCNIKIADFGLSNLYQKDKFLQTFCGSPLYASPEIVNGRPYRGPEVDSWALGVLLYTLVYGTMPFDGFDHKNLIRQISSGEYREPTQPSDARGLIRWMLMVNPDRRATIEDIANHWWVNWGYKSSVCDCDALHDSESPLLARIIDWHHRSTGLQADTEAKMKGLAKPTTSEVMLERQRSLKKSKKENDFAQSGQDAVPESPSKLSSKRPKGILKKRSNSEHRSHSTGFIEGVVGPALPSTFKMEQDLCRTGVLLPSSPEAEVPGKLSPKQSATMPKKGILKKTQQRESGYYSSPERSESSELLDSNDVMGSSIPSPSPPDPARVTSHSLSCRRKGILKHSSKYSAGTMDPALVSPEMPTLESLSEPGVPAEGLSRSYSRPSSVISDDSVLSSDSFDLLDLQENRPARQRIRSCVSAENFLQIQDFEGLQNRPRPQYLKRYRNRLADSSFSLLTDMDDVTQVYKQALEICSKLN
Chain of [Pyruvate dehydrogenase (acetyl-transferring)] kinase isozyme 4, mitochondrial (Homo sapiens) (Q16654 whole entry, looked up): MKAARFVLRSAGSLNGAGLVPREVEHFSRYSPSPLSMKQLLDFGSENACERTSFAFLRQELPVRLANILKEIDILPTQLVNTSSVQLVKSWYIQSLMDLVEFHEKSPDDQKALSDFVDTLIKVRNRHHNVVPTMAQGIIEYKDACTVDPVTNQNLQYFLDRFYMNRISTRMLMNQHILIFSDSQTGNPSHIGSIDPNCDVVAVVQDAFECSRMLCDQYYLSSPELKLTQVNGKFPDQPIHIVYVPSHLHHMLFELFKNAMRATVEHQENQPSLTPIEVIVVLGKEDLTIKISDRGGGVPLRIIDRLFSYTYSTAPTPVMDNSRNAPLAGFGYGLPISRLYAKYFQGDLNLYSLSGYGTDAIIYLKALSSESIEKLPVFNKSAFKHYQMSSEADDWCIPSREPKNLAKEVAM
Chain of Serine/threonine-protein kinase Nek2 (Homo sapiens) (P51955 whole entry): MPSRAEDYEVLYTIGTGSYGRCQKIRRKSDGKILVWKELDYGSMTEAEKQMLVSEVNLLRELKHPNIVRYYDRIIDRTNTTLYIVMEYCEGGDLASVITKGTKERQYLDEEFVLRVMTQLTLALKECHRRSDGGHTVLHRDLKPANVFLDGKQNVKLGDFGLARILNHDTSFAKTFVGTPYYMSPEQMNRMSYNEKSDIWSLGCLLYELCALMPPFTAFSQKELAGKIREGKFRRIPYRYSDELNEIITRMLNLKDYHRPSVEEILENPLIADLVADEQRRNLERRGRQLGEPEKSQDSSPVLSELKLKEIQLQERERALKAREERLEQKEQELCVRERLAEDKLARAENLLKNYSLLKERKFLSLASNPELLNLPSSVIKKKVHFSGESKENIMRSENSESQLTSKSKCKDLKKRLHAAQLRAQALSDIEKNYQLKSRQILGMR

Compound `CS(=O)(=O)c1ccc(-n2nc(-c3cnc4[nH]ccc4c3)c3c(N)ncnc32)cc1` has an AUC [1] of 0.212 µM·h, an inhibition [2] of 12% and an inhibition [3] of 1%. It also gave an inhibition [4] of 15%, an inhibition [5] of -8% and an inhibition [6] of -6%. The inhibition [7] was 27%, the inhibition [8] was -7% and the inhibition [9] was -3%. It also gave an inhibition [10] of -4%, an inhibition [11] of 18% and an inhibition [12] of 92%. The inhibition [13] was 59%, the inhibition [14] was 59% and the inhibition [15] was 0%. The inhibition [16] was -2%, the inhibition [17] was -7% and the inhibition [18] was 38%. For the same compound, the inhibition [19] was 3%, the inhibition [20] was 13% and the inhibition [21] was -1%. For the same compound, the inhibition [22] was 14%, the inhibition [23] was -6% and the inhibition [24] was 30%.
